Molecular target: T1, TGF-beta receptor type-1 (Homo sapiens, UniProt P36897)
T1 sequence (P36897 whole entry): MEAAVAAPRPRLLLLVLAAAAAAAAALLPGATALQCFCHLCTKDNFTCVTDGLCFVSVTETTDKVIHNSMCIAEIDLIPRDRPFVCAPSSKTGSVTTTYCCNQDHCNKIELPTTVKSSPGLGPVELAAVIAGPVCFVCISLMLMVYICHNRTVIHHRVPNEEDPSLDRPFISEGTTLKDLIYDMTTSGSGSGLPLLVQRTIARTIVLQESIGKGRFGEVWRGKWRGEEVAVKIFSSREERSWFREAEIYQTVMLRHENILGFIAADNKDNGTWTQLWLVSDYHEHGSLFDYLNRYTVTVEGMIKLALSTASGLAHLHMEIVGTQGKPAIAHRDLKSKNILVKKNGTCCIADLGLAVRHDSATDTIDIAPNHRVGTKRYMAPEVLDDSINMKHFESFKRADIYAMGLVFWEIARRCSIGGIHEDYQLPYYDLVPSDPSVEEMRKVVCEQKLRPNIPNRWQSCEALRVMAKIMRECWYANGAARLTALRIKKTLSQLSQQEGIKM
Experiment: ADP-Glo Kinase Assay
Protocol: The principle of the activity assay was that TGFβR1 phosphorylates the substrate TGFβR1tide, consuming ATP in the process. […] The specific experimental steps were as follows. Compounds were diluted 4-fold in DMSO in a dilution plate, with the final starting concentration of the compounds being 10 μM, across 10 concentration gradient points. The compounds were then further diluted 50-fold into the kinase reaction buffer and incubated on a shaker for 20 minutes. Kinase was formulated with an enzyme reaction buffer. 2 μl kinase was added to each well of the reaction plate. 1 μl of the compound diluted in buffer was added to each well, and then the plate was sealed with a sealing membrane and centrifuged at 1000 g for 30 seconds, leaving it at room temperature for 10 minutes. Solutions of TGFβR1tide and ATP were prepared with the kinase reaction buffer, and 2 μL of the TGFβR1tide/ATP solution was added to the reaction plate. The plate was sealed with a sealing film and centrifuged at 1000 g for 30 seconds. It was allowed to react at room temperature for 60 minutes. Subsequently, 4 μL of ADP-Glo was transferred to a 384-well reaction plate and centrifuged at 1000 rpm/min for 1 minute, followed by incubation at 25° C. for 40 minutes. […] The RLU (Relative Luminescence Unit) signal was read using a BMG microplate reader, which was used to characterize the degree of kinase activity.

IC50: 1.1 nM
Compound: Cc1cccc(-c2n[nH]cc2-c2ccnc(-c3nc4c([nH]3)CN(C(=O)N3CCN(C)CC3)C4)c2)n1 [US20250215017, Compound 7]

Source: BindingDB's records for patent US20250215017 (Medinno Pharmaceutical Technology (Zhuhai) Co., 2025)
